# Assay results taken from ChEMBL document CHEMBL1134018, “Study of aminoglycoside-nucleic acid interactions by an HPLC method” (Bioorg Med Chem Lett, 2001).
# Experiments:
# [1] = system: Nucleic Acid; assay: Percent of interaction with wheat germ tRNA (type V) at a concentration of 35 uM; format: functional; settings: Triticum aestivum
# [2] = system: Nucleic Acid; assay: Percent of interaction with calf thymus DNA (activated type XV) at a concentration of 35 uM; format: functional; settings: Bos taurus
SMILES,tRNA peak exclusion [1] [%],DNA peak exclusion [2] [%]
NC[C@@H]1O[C@H](O[C@H]2[C@@H](O)[C@H](O[C@@H]3[C@@H](O)[C@H](N)C[C@H](N)[C@H]3O[C@H]3O[C@H](CN)[C@@H](O)[C@H](O)[C@H]3N)O[C@@H]2CO)[C@H](N)[C@@H](O)[C@@H]1O,77.8,100
"NC1C[C@@H](N)C(O)[C@@H](O)[C@@H]1O (single isomer, unassigned)",30.3,–
CN[C@@H]1[C@H](O[C@H]2[C@H](O[C@H]3[C@H](O)[C@@H](O)[C@H](N=C(N)N)[C@@H](O)[C@@H]3N=C(N)N)O[C@@H](C)[C@]2(O)C=O)O[C@@H](CO)[C@H](O)[C@H]1O,52.5,44.3
CCN[C@@H]1C[C@H](N)[C@@H](O[C@H]2OC(CN)=CC[C@H]2N)[C@H](O)[C@H]1O[C@H]1OC[C@](C)(O)[C@H](NC)[C@H]1O,55.1,68.8
NC(Cc1ccccc1)C(=O)NCC1O[C@@H](O[C@@H]2C(N)C[C@@H](N)[C@@H](O)C2O)[C@@H](N)C(O)[C@@H]1O (stereo partly drawn),100,100
NC[C@@H]1O[C@@H](O[C@H]2[C@H](O)[C@@H](O[C@H]3O[C@H](CO)[C@@H](O)[C@H](N)[C@H]3O)[C@H](N)C[C@@H]2N)[C@@H](O)[C@H](O)[C@H]1O,56,67.3
"NC[C@H]1OC(O[C@H]2[C@H](O)C(O)[C@H](N)C[C@@H]2N)C(N)[C@@H](O)[C@@H]1O (single isomer, unassigned)",47.3,40
